Holding throughout (assay type): cell-based
One experiment relates to SGC-7901. The experiment can be described thus: Antitumor function detection, CCK-8 inhibition ratio. Conditions: SGC-7901 cells, 72 hours. Here is the method:
(§1) Test Method: The logarithmic phase cells were seeded in 96-well plates with 3,000 cells per well/100 μl of density. After the cells were adhered, 100 μl of the test compounds with different concentrations were added. Design 6-8 concentration gradients. Set five parallel wells in per group and set the control group. After the compound and tumor cells were incubated for 72 hours, 10 μl of CCK-8 solution was added in per well. After the cells were incubated for 1-2 hours in the incubator, the optical density (OD) of per well was counted by Universal Microplate Spectrophotometer to calculate the inhibition ratio: inhibition ratio (IR %)=(1−TOD/COD)×100%, TOD: the mean OD of drug administration group, COD: the mean OD of solvent control. The dose-response curve was plotted in accordance to the drugs with different concentrations and the inhibition ratio of cells to obtain the Inhibitory concentration of drug (IC50). Test Method: The logarithmic phase cells were seeded in 96-well plates with 3,000 cells per well/100 l of density. After the cells were adhered, 100 l of the test compounds with different concentrations were added. Design 6-8 concentration gradients. Set five parallel wells in each group and set the control group. After the compound and tumor cells were incubated for 72 hours, 10 µl of CCK-8 solution was added in each well. After the cells were incubated for 1-2 hours in the incubator, the optical density (OD) of per well was counted by Universal Microplate Spectrophotometer to calculate the inhibition ratio: inhibition ratio (IR %)=(1−TOD/COD)×100%, TOD: the mean OD of drug administration group, COD: the mean OD of solvent control. The dose-response curve was plotted in accordance to the drugs with different concentrations and the inhibition ratio of cells to obtain the Inhibitory concentration of drug (IC50). Test Method: The logarithmic phase cells were seeded in 96-well plates with 3,000 cells per well/100 μl of density. After the cells were adhered, 100 μl of the test compounds with different concentrations were added. Design 6-8 concentration gradients. Set five parallel wells in each group and set the control group. After the compound and tumor cells were incubated for 72 hours, 10 µl of CCK-8 solution was added in each well. After the cells were incubated for 1-2 hours in the incubator, the optical density (OD) of per well was counted by Universal Microplate Spectrophotometer to calculate the inhibition ratio: inhibition ratio (IR %)=(1−TOD/COD)×100%, TOD: the mean OD of drug administration group, COD: the mean OD of solvent control. The dose-response curve was plotted in accordance to the drugs with different concentrations and the inhibition ratio of cells to obtain the Inhibitory concentration of drug (IC50). Test Method: The logarithmic phase cells were seeded in 96-well plates with 3,000 cells per well/100 μl of density. After the cells were adhered, 100 μl of the test compounds with different concentrations were added. Design 6-8 concentration gradients. Set five parallel wells in each group and set the control group. After the compound and tumor cells were incubated for 72 hours, 10 µl of CCK-8 solution was added in each well. After the cells were incubated for 1-2 hours in the incubator, the optical density (OD) of per well was counted by Universal Microplate Spectrophotometer to calculate the inhibition ratio: inhibition ratio (IR %)=(1−TOD/COD)×100%, TOD: the mean OD of drug administration group, COD: the mean OD of solvent control. The dose-response curve was plotted in accordance to the drugs with different concentrations and the inhibition ratio of cells to obtain the Inhibitory concentration of drug (IC50).

A further experiment concerns MKN-45. Described as above. Particulars: MKN-45 cells, 72 hours. The procedure: as §1
Experiment [1] deals with gastric cancer cell HGC-27. The experiment is described as above. Particulars: HGC-27 cells; for The inhibition ratio (%): 72 hours, CCK-8. Here is the method: as §1
The next experiment has as its system AGS. Described as above. Conditions: AGS cells, 72 hours. Here is the method: as §1
In experiment [2] the test system is Candida tropicalis 191327. As to the kind of experiment: Anti-fungal function detection, MIC by dilution in RPMI1640. Particulars: Clinical drug-resistant fungal strain Candida tropicalis 191327, incubated for 35 and 24 h, read-out: Minimum Inhibitory Concentration, MIC. Here is the method:
(§2) Test Method: The hexadecyl tromethamine hydrochloride salt solution was semi-diluted to five concentration gradients (100 μg/ml, 50 μg/ml, 25 μg/ml, 12.5 μg/ml and 6.25 μg/ml) by RPMI1640 fluid nutrient medium. 100 μl of every gradient solution was added in the 96-well plate for standby application. Standard fungal strain and clinical drug-resistant fungal strain in table 2 were chosen as the experimental fungus. The activation of the experimental fungus was obtained through that the experimental fungus were cultivated for 48 h at 30° C. The activated experimental fungus was matched to fungal suspension. Count and adjust the concentration using blood counting chamber. The moderate fungal suspension were added into RPMI1640 fluid nutrient medium to 0.5-2.5×10^3 cfμ/ml of final working concentration. 100 μl of above fungal suspension was added into the above 96-well plate with the hexadecyl tromethamine hydrochloride salt solution. Two parallel wells were set for each concentration gradient compound of each strain. Blank medium and blank medium with fungal solution were set as control simultaneously.
as §2, with “tromethamine” for “tromethamine hydrochloride salt”
as §2, with “phosphate” for “hydrochloride salt”, “µg/ml)” for “μg/ml)”
(§3) 2. The Anti-Fungal Function Detection of the Hexadecyl Tromethamine Benzene Sulfonate Test Method: The hexadecyl tromethamine benzene sulfonate solution was semi-diluted to five concentration gradients (100 μg/ml, 50 μg/ml, 25 μg/ml, 12.5 μg/ml and 6.25 µg/ml) by RPMI1640 fluid nutrient medium. 100 μl of every gradient solution was added in the 96-well plate for standby application. Standard fungal strain and clinical drug-resistant fungal strain in table 2 were chosen as the experimental fungus. The activation of the experimental fungus was obtained through that the experimental fungus were cultivated for 48 h at 30° C. The activated experimental fungus was matched to fungal suspension. […]

The subject of experiment [3] is Candida lusitaniae 340928. The experiment is described as above. Particulars: Clavispora lusitaniae, Standard fungal strain Candida lusitaniae 340928, incubated for 35 and 24 h, read-out: Minimum Inhibitory Concentration, MIC. Here is the method: as §2
as §2, with “tromethamine” for “tromethamine hydrochloride salt”
as §2, with “phosphate” for “hydrochloride salt”, “µg/ml)” for “μg/ml)”
as §3

The subject of experiment [4] is Candida tropicalis 191529. Described as above. Conditions: Clinical drug-resistant fungal strain Candida tropicalis 191529, incubated for 35 and 24 h, read-out: Minimum Inhibitory Concentration, MIC. The procedure: as §2
as §2, with “tromethamine” for “tromethamine hydrochloride salt”
as §2, with “phosphate” for “hydrochloride salt”, “µg/ml)” for “μg/ml)”
as §3

The subject of a further experiment is Candida glabrata 337348. The description is as above. Conditions: for MIC: Nakaseomyces glabratus, 337348, Standard fungal strain Candida glabrata 337348, incubated for 35 and 24 h, read-out: Minimum Inhibitory Concentration, MIC. The procedure:
as §2
as §2, with “tromethamine” for “tromethamine hydrochloride salt”
as §2, with “phosphate” for “hydrochloride salt”, “µg/ml)” for “μg/ml)”
as §3

Experiment [5] has as its system Candida parapsilosis 191344. The description is as above. Conditions: for MIC: Lodderomyces parapsilosis, 191344, Clinical drug-resistant fungal strain Candida parapsilosis 191344, incubated for 35 and 24 h, read-out: Minimum Inhibitory Concentration, MIC. The procedure:
as §2
as §2, with “tromethamine” for “tromethamine hydrochloride salt”
as §2, with “phosphate” for “hydrochloride salt”, “µg/ml)” for “μg/ml)”
as §3

The test system of the next experiment is Candida krusei 185429. The experiment is described as above. Conditions: Pichia kudriavzevii, Standard fungal strain Candida krusei 185429, incubated for 35 and 24 h, read-out: Minimum Inhibitory Concentration, MIC. Here is the method:
as §2
as §2, with “tromethamine” for “tromethamine hydrochloride salt”
as §2, with “phosphate” for “hydrochloride salt”, “µg/ml)” for “μg/ml)”
as §3

Values after ≈ are worked out from the molar mass of the structure shown.

With `CCCCCCCCCCCCCCCCNC(CO)(CO)CO.Cl` [2-(hexadecylamino)-2-(hydroxymethyl) propane-1,3-diol hydrochloride], the “The inhibition ratio (%)” value with SGC-7901 (2 μM) is recorded as 21%; in the experiment on SGC-7901 (20 μM), 100%; in the experiment on MKN-45 (2 μM), 31%; with MKN-45 (20 μM) it was 99%; in [1] (2 μM), 72%; in experiment [1] (20 μM) it was 101%. The “The inhibition ratio (%)” value in the experiment on AGS (2 μM) came to 42%; in the experiment with AGS (20 μM) it was 99%. The “inhibitory effect (level reached on the inhibition curve, FIG. 3)” value in [1] (rises rapidly when the logarithmic value of compound concentration reached 3 nM) turned out to be 100%. Besides, the MIC in [2] turned out to be 25 µg/mL; in experiment [3], 25 µg/mL; in experiment [4], 25 µg/mL; with Candida glabrata 337348, 25 µg/mL; in [5], 25 µg/mL; in the experiment on Candida krusei 185429, 50 µg/mL.

With `CCCCCCCCCCCCCCCCNC(CO)(CO)CO.O=S(=O)(O)c1ccccc1` [hexadecyl tromethamine benzene sulfonate], the “The inhibition ratio (%)” value with SGC-7901 (2 μM) is recorded as 23%; in the experiment on SGC-7901 (20 μM) it was 98%; in the experiment with MKN-45 (2 μM), 34%; in the experiment on MKN-45 (20 μM), 100%; in experiment [1] (2 μM) it was 62%; in experiment [1] (20 μM), 96%. For the same molecule, the “The inhibition ratio (%)” value is given as 38% with AGS (2 μM) and 95% in the experiment with AGS (20 μM). Besides, the MIC was found to be 50 µg/mL in experiment [2]; 25 µg/mL in [3]; 50 µg/mL in experiment [4]; 25 µg/mL in the experiment with Candida glabrata 337348; 50 µg/mL in experiment [5]; 100 µg/mL with Candida krusei 185429.

For the molecule `CCCCCCCCCCCCCCCCNC(CO)(CO)CO` [hexadecyl tromethamine phosphate], the “The inhibition ratio (%)” value with SGC-7901 (2 μM, phosphate) came out at 25%; with SGC-7901 (20 μM, phosphate), 101%; with MKN-45 (2 μM, phosphate), 29%; in the experiment with MKN-45 (20 μM, phosphate), 97%; in experiment [1] (2 μM, phosphate), 68%; in experiment [1] (20 μM, phosphate), 99%. Moreover, the “The inhibition ratio (%)” value in the experiment on AGS (2 μM, phosphate) is 44%; with AGS (20 μM, phosphate), 100%. Moreover, the “Minimum Inhibitory Concentration, MIC” value in the experiment on Candida glabrata 337348 (Standard fungal strain Candida glabrata 337348, incubated for 35 and 24 h, phosphate) was 50 µg/mL; in experiment [5] (Clinical drug-resistant fungal strain Candida parapsilosis 191344, incubated for 35 and 24 h, phosphate), 50 µg/mL.

For `CCCCCCCCCCCCCCCCNC(CO)(CO)CO` [hexadecyl tromethamine], the “The inhibition ratio (%)” value is reported as 24% in the experiment with SGC-7901 (2 μM); 102% with SGC-7901 (20 μM); 32% with MKN-45 (2 μM); 98% in the experiment with MKN-45 (20 μM); 72% in [1] (2 μM); 100% in experiment [1] (20 μM). Besides, the “The inhibition ratio (%)” value with AGS (2 μM) is 43%; in the experiment on AGS (20 μM), 99%. The MIC in experiment [2] is 25 µg/mL (≈ 72.3 µM); in experiment [3], 25 µg/mL (≈ 72.3 µM); in [4] it was 25 µg/mL (≈ 72.3 µM); with Candida glabrata 337348, 25 µg/mL (≈ 72.3 µM); in [5], 25 µg/mL (≈ 72.3 µM); in the experiment with Candida krusei 185429, 50 µg/mL (≈ 145 µM).

Source of the values: US20240051914A1, “THE HEXADECANE TROMETHAMINE COMPOUND, ITS SYNTHESIS METHOD AND ITS APPLICATION IN ANTITUMOR AND ANTIFUNGAL ASPECTS” (Wuxi No.2 People's Hospital, priority 2021, published 2024).
